Key:
Experiment in all cases: Growth inhibitory activity of compounds on BaF3 cell lines stably transfected with kinase (MTS, 48 h)
Assay type in all cases: cell-based
[1] = target: T1, various mutants of kinase EGFR (BaF3 cell lines stably transfected with kinase) (Homo sapiens, UniProt P00533); settings: BaF3 cell line stably transfected with EGFR Δ19Del, read-out: Δ19Del growth inhibitory activity IC50
T1 construct: other: BaF3 cells stably transfected with EGFR Δ19Del; MTS, 48 h; other: BaF3 cell line stably transfected with EGFR Δ19Del
How it was run: (§1)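 BaF3 cells stably transfected with EGFR mutants were exposed for 48 h at 37°C to 8 compound concentrations (top 10 µM, 1/3 dilutions, 0.1% DMSO). Growth was read by MTS at 490 nm after 1-4 h, in duplicate; IC50 was derived from inhibition rates versus DMSO control.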

[2] = target: T2, various mutants of kinase EGFR (BaF3 cell lines stably transfected with kinase) (Homo sapiens, UniProt P00533, T790M, form not given); settings: BaF3 cell line stably transfected with EGFR Δ19Del/T790M, read-out: Δ19Del/ T790M growth inhibitory activity IC50
T2 construct: other: BaF3 cells stably transfected with EGFR Δ19Del/T790M; MTS, 48 h; other: BaF3 cell line stably transfected with EGFR Δ19Del/T790M; MTS, 48
How it was run: as §1

[3] = target: T3, various mutants of kinase EGFR (BaF3 cell lines stably transfected with kinase) (Homo sapiens, UniProt P00533, T790M/C797S, form not given); settings: BaF3 cell line stably transfected with EGFR Δ19Del/T790M/C797S, read-out: Δ19Del/T790M/ C797S growth inhibitory activity IC50
T3 construct: other: BaF3 cells stably transfected with EGFR Δ19Del/T790M/C797S; MTS, 48; other: BaF3 cell line stably transfected with EGFR Δ19Del/T790M/C7
How it was run: as §1

[4] = target: T4, various mutants of kinase EGFR (BaF3 cell lines stably transfected with kinase) (Homo sapiens, UniProt P00533, C797S/L858R/T790M); settings: BaF3 cell line stably transfected with EGFR L858R/T790M/C797S, read-out: L858R/T790M/ C797S growth inhibitory activity IC50
T4 construct: expressed in transfected cells; host or cells: BaF3
How it was run: as §1

[5] = target: T5, various mutants of kinase EGFR (BaF3 cell lines stably transfected with kinase) (Homo sapiens, UniProt P00533, L858R); settings: BaF3 cell line stably transfected with EGFR L858R, read-out: L858R growth inhibitory activity IC50
T5 construct: expressed in transfected cells; host or cells: BaF3
How it was run: as §1

[6] = target: T6, various mutants of kinase EGFR (BaF3 cell lines stably transfected with kinase) (Homo sapiens, UniProt P00533, L858R/T790M); settings: BaF3 cell line stably transfected with EGFR L858R/T790M, read-out: L858R/ T790M growth inhibitory activity IC50
T6 construct: expressed in transfected cells; host or cells: BaF3
How it was run: as §1

T6 sequence (P00533 25-1210 T790M/L858R): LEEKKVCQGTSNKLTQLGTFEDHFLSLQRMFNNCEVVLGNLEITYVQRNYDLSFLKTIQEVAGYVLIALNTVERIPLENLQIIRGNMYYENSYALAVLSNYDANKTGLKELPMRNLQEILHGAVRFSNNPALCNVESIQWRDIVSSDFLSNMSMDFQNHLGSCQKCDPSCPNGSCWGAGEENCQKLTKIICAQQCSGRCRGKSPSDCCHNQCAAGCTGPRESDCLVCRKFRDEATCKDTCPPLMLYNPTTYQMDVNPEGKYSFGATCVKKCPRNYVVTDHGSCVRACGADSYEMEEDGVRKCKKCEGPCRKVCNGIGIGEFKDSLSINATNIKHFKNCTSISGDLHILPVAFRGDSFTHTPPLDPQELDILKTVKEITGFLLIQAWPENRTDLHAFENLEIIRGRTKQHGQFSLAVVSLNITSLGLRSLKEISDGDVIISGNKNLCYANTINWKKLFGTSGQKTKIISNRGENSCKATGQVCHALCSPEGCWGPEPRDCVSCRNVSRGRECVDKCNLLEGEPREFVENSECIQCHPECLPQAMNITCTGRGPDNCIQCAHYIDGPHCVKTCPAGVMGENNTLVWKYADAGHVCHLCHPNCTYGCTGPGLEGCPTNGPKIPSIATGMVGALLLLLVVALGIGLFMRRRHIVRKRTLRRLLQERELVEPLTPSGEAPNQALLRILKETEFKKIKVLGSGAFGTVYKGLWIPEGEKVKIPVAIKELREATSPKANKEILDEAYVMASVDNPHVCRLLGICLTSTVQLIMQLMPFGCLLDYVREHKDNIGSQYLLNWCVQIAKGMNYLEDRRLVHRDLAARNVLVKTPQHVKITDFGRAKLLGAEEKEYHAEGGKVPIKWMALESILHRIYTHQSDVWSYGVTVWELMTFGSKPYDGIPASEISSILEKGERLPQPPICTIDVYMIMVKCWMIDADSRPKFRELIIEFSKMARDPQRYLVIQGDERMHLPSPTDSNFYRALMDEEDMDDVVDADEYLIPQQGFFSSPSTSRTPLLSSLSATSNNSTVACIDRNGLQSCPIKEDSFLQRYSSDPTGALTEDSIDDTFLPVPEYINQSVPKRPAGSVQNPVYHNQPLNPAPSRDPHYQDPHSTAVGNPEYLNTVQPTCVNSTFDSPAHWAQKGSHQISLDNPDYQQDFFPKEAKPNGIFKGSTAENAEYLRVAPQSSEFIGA
T3 sequence (P00533 with tags, fused parts or gaps DEL746-750/T790M/C797S, form open): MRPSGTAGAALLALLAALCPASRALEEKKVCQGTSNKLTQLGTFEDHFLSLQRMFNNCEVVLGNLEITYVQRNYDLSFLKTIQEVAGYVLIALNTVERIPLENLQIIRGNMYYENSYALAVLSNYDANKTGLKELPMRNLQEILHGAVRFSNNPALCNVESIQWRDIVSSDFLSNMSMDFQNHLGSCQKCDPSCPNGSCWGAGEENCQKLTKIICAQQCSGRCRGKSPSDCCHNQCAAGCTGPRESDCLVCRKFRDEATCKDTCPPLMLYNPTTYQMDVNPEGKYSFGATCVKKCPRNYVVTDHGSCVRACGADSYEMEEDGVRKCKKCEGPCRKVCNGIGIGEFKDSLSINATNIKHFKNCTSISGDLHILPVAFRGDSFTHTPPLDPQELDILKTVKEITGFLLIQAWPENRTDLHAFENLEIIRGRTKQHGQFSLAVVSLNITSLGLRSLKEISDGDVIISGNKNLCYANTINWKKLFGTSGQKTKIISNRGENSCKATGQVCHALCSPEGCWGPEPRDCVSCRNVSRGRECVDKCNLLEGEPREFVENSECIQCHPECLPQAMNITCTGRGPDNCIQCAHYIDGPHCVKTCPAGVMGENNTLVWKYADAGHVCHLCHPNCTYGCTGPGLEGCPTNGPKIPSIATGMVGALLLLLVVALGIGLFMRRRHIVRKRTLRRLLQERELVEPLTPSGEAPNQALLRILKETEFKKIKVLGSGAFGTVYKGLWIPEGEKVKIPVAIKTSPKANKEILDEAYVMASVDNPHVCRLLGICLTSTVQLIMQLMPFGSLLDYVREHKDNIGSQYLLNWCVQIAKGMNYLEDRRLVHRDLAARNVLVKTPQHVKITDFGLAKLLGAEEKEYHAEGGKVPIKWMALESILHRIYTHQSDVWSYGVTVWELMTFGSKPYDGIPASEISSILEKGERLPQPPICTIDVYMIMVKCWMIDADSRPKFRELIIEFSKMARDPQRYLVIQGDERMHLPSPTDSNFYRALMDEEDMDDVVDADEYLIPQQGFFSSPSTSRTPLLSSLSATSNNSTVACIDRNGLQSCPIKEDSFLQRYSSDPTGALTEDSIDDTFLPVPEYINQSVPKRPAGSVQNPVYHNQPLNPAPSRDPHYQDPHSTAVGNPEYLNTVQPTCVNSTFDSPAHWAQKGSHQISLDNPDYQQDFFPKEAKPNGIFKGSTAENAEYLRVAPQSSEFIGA
T4 sequence (P00533 25-1210 T790M/C797S/L858R): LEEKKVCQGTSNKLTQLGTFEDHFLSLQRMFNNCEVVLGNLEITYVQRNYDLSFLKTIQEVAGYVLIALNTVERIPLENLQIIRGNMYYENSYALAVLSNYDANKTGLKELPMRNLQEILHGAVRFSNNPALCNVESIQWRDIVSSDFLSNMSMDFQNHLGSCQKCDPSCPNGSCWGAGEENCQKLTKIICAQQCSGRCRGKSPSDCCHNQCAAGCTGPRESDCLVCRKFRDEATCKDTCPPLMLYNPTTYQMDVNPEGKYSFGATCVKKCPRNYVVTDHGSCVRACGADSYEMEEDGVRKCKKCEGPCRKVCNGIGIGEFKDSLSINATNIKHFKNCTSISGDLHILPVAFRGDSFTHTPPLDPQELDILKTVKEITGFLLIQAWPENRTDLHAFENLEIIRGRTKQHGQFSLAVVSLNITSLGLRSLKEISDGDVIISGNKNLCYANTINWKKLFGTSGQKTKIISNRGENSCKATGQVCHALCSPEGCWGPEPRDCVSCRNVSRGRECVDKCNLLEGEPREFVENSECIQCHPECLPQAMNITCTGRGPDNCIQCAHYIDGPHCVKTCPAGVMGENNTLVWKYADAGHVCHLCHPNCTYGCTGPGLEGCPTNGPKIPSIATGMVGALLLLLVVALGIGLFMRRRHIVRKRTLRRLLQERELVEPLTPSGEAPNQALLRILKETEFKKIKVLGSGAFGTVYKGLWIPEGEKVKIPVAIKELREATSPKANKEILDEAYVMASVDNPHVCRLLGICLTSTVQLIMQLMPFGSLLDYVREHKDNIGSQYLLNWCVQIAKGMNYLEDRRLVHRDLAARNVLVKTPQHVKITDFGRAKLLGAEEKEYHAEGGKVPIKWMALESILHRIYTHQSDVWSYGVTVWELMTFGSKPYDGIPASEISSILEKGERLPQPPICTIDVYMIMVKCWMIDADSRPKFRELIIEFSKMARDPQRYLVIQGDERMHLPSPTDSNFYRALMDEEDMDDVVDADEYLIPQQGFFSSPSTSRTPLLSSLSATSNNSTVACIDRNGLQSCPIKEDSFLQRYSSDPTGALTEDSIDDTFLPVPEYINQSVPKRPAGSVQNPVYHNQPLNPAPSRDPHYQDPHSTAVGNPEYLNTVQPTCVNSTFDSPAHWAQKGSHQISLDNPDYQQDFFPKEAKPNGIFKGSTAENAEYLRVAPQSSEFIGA
T5 sequence (P00533 25-1210 L858R): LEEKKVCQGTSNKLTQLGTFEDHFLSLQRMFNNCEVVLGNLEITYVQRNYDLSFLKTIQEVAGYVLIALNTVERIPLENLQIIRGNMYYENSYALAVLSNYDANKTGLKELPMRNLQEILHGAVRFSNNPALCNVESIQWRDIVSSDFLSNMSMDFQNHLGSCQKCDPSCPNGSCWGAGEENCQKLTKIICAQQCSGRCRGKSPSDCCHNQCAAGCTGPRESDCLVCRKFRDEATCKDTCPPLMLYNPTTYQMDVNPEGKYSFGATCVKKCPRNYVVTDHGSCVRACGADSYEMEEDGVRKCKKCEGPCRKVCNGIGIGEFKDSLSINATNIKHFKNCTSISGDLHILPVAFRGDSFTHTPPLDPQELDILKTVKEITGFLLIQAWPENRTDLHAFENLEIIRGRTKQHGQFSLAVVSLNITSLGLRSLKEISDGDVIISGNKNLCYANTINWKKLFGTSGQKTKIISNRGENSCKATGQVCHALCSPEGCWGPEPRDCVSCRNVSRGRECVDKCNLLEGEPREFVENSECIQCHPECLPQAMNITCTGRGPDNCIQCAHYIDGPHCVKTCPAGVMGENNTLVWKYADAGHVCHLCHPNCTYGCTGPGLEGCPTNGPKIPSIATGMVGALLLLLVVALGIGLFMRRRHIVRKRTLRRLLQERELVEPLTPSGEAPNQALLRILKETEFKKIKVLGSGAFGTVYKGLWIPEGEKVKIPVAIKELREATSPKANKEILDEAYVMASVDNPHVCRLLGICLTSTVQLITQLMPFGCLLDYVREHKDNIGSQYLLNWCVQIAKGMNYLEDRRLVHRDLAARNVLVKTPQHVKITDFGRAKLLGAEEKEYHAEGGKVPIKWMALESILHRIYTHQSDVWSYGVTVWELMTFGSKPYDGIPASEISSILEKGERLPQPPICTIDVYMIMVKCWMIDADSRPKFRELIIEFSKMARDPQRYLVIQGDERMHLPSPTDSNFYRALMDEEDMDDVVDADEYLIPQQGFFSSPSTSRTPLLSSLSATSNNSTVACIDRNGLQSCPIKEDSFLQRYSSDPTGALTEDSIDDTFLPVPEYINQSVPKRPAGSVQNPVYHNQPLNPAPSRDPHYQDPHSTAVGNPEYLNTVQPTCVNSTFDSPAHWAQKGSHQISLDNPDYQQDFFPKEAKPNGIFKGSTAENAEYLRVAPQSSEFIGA

IC50 [1] [nM] | IC50 [2] [nM] | IC50 [3] [nM] | IC50 [4] [nM] | IC50 [5] [nM] | IC50 [6] [nM] | Compound
≤ 50 | ≤ 50 | ≤ 50 | ≤ 50 | 50 to 500 | ≤ 50 | COc1cc(N2CCC(N3CCN(C)CC3)CC2)c(C)cc1Nc1ncc(Br)c(Nc2ccc3nccnc3c2NS(C)(=O)=O)n1 [Compound I-402]
≤ 50 | ≤ 50 | ≤ 50 | ≤ 50 | ≤ 50 | ≤ 50 | CCc1cc(Nc2ncc(Br)c(Nc3ccc4nccnc4c3NS(C)(=O)=O)n2)c(OC)cc1N1CCC(N2CCN(C)CC2)CC1 [Compound I-403]
50 to 500 | ≤ 50 | ≤ 50 | ≤ 50 | ≤ 50 | ≤ 50 | CCc1cc(Nc2ncc(Br)c(Nc3ccc4nccnc4c3NS(C)(=O)=O)n2)c(OC)nc1N1CCC(N2CCN(C)CC2)CC1 [Compound I-404]
50 to 500 | ≤ 50 | 50 to 500 | 50 to 500 | 50 to 500 | 50 to 500 | CCc1cc(Nc2ncc(Br)c(Nc3ccc4nccnc4c3NS(C)(=O)=O)n2)c(OC(F)(F)F)cc1N1CCC(N2CCN(C)CC2)CC1 [Compound I-405]
50 to 500 | 50 to 500 | 50 to 500 | 50 to 500 | 50 to 500 | 50 to 500 | COc1cc(N2CCC(N3CCN(C)CC3)CC2)c(C(C)C)cc1Nc1ncc(Br)c(Nc2ccc3nccnc3c2NS(C)(=O)=O)n1 [Compound I-406]
≤ 50 | ≤ 50 | ≤ 50 | ≤ 50 | ≤ 50 | ≤ 50 | COc1cc(N2CCC(N3CCN(C)CC3)CC2)c(C2CC2)cc1Nc1ncc(Br)c(Nc2ccc3nccnc3c2NS(C)(=O)=O)n1 [Compound I-407]
50 to 500 | ≤ 50 | ≤ 50 | ≤ 50 | ≤ 50 | ≤ 50 | COc1cc(N2CCC(N3CCN(C)CC3)CC2)c(CC2CC2)cc1Nc1ncc(Br)c(Nc2ccc3nccnc3c2NS(C)(=O)=O)n1 [Compound I-408]
≤ 50 | ≤ 50 | ≤ 50 | ≤ 50 | ≤ 50 | ≤ 50 | CCc1cc(Nc2ncc(Br)c(Nc3ccc4nccnc4c3NS(C)(=O)=O)n2)ccc1N1CCC(N2CCN(C)CC2)CC1 [Compound I-409]
≤ 50 | ≤ 50 | ≤ 50 | ≤ 50 | ≤ 50 | ≤ 50 | CCc1cc(Nc2ncc(Br)c(Nc3ccc4nccnc4c3NS(C)(=O)=O)n2)c(OC)cc1N1CCC(N(C)C)CC1 [Compound I-410]
≤ 50 | ≤ 50 | ≤ 50 | ≤ 50 | ≤ 50 | ≤ 50 | CCc1cc(Nc2ncc(Br)c(Nc3ccc4nccnc4c3NS(C)(=O)=O)n2)c(OC)cc1N1CCN(C)CC1 [Compound I-411]
≤ 50 | ≤ 50 | ≤ 50 | ≤ 50 | ≤ 50 | ≤ 50 | CCc1cc(Nc2ncc(Br)c(Nc3ccc4nccnc4c3NS(C)(=O)=O)n2)c(OC)cc1N1CCC(N(C)C)C1 (stereo not drawn) [Compound I-412]
50 to 500 | 50 to 500 | 50 to 500 | 50 to 500 | 50 to 500 | 50 to 500 | COc1cc(N2CCC(N3CCN(C)CC3)CC2)ccc1Nc1ncc(Br)c(Nc2ccc3nccnc3c2NS(=O)(=O)C(C)C)n1 [Compound I-413]
50 to 500 | ≤ 50 | ≤ 50 | ≤ 50 | 50 to 500 | ≤ 50 | COc1cc(N2CCC(N3CCN(C)CC3)CC2)c(C)cc1Nc1ncc(Br)c(Nc2ccc3nccnc3c2NS(=O)(=O)C(C)C)n1 [Compound I-414]
≤ 50 | ≤ 50 | ≤ 50 | ≤ 50 | ≤ 50 | ≤ 50 | CCc1cc(Nc2ncc(Br)c(Nc3ccc4nccnc4c3NS(=O)(=O)C(C)C)n2)c(OC)cc1N1CCC(N2CCN(C)CC2)CC1 [Compound I-415]
500 to 2500 | 500 to 2500 | 50 to 500 | 500 to 2500 | 500 to 2500 | 500 to 2500 | COc1cc(N2CCC(N3CCN(C)CC3)CC2)ccc1Nc1nc(Nc2ccc3nccnc3c2N(C)S(C)(=O)=O)c2sccc2n1 [II-1-1]
50 to 500 | 50 to 500 | ≤ 50 | 50 to 500 | 50 to 500 | 50 to 500 | COc1cc(N2CCC(N3CCN(C)CC3)CC2)c(C)cc1Nc1nc(Nc2ccc3nccnc3c2N(C)S(C)(=O)=O)c2sccc2n1 [II-1-2]
50 to 500 | 50 to 500 | ≤ 50 | ≤ 50 | 50 to 500 | 50 to 500 | CCc1cc(Nc2nc(Nc3ccc4nccnc4c3N(C)S(C)(=O)=O)c3sccc3n2)c(OC)cc1N1CCC(N2CCN(C)CC2)CC1 [II-1-3]
500 to 2500 | 500 to 2500 | 500 to 2500 | 500 to 2500 | 500 to 2500 | 500 to 2500 | COc1nc(N2CCC(N3CCN(C)CC3)CC2)ccc1Nc1nc(Nc2ccc3nccnc3c2N(C)S(C)(=O)=O)c2sccc2n1 [II-1-4]
500 to 2500 | 500 to 2500 | 50 to 500 | 50 to 500 | 500 to 2500 | 50 to 500 | CCc1cc(Nc2nc(Nc3ccc4nccnc4c3N(C)S(C)(=O)=O)c3sccc3n2)c(OC)nc1N1CCC(N2CCN(C)CC2)CC1 [II-1-6]
500 to 2500 | 50 to 500 | 50 to 500 | 50 to 500 | 500 to 2500 | 50 to 500 | CCc1cc(Nc2nc(Nc3ccc4nccnc4c3N(C)S(C)(=O)=O)c3sccc3n2)c(OC(F)(F)F)cc1N1CCC(N2CCN(C)CC2)CC1 [II-1-8]
500 to 2500 | 50 to 500 | ≤ 50 | 50 to 500 | 500 to 2500 | 50 to 500 | C=Cc1cc(Nc2nc(Nc3ccc4nccnc4c3N(C)S(C)(=O)=O)c3sccc3n2)c(OC(F)(F)F)cc1N1CCC(N2CCN(C)CC2)CC1 [II-1-9]
500 to 2500 | 50 to 500 | 500 to 2500 | 500 to 2500 | 500 to 2500 | 500 to 2500 | COc1cc(N2CCC(N3CCN(C)CC3)CC2)c(Cc2ccccc2)cc1Nc1nc(Nc2ccc3nccnc3c2N(C)S(C)(=O)=O)c2sccc2n1 [II-1-11]
500 to 2500 | 500 to 2500 | 50 to 500 | 50 to 500 | 500 to 2500 | 50 to 500 | COc1cc(N2CCN(C)CC2)c(C)cc1Nc1nc(Nc2ccc3nccnc3c2N(C)S(C)(=O)=O)c2sccc2n1 [II-1-12]
500 to 2500 | 50 to 500 | ≤ 50 | 50 to 500 | 500 to 2500 | 50 to 500 | COc1cc(N2CCC(N(C)C)CC2)c(C)cc1Nc1nc(Nc2ccc3nccnc3c2N(C)S(C)(=O)=O)c2sccc2n1 [II-1-13]
500 to 2500 | 500 to 2500 | 50 to 500 | 500 to 2500 | 500 to 2500 | 50 to 500 | COc1cc(N2CCC(N(C)C)C2)c(C)cc1Nc1nc(Nc2ccc3nccnc3c2N(C)S(C)(=O)=O)c2sccc2n1 (stereo not drawn) [II-1-14]

Source: patent publication US20230310428A1, “EGFR INHIBITOR AND PREPARATION METHOD AND USE THEREOF” (HONGYUN BIOTECH CO., LTD., priority 2020, published 2023)
